Experimental data: publication PMC6337391 (Molecules, 2019)

What was measured:
[1] = system: L929 mouse fibroblasts cells; experiment: Cytotoxicity, propidium iodide fluorescence method; assay type: cell-based; settings: 24-h incubation
Method: The cytotoxicity of the synthesized derivatives against L929 mouse fibroblasts cells was determined using the propidium iodide (PI) fluorescence method in the presence of different concentrations (1–100 μM) of these compounds. The results are presented in Table 4 in the form of the % cell survival values as PI% for the examined compounds. […] Chalcones c7, c8, c11, and c12 follow.
L929 mouse fibroblasts cells were cultured in EMEM supplemented with 10% horse serum, 2 mM L-glutamine, 1 mM sodium pyruvate, 0.1 mM nonessential amino acids, 1.5 g/L sodium bicarbonate, and 100 μg/mL penicillin–streptomycin at 37 °C in a humidified atmosphere with 5% CO2. L929 cells were plated into 24-well plates at a density […] and allowed to attach and grow for 24 h. The supernatant in each well then replaced with medium containing various concentrations (1, 10, 20, 50 and 100 μM) of compounds a5–12, c5–12, di, and dii–dvi, which presented the more interesting results in the in vitro experiments. After 24-h incubation, the supernatant was removed and the cells were washed with PBS. The cells were detached with 0.25% trypsin, transferred to FACS tubes, and then centrifuged (1600 rpm for 5 min) and the pellet washed with PBS. After washing, the cells in the pellet were incubated with 5 μL propidium iodide (PI) solution (1 mg/mL) for 1 min. The PI fluorescence (cell death) was determined with flow cytometry, FACS Calibur, Coulter Epics XL-MCL (Beckman, Inc., Mount Holly, NJ, USA). The analysis of flow cytometry data was performed with the WinMDI analysis program (Table 4).

[2] = Inhibition of linoleic acid lipid peroxidation (AAPH)
Description: The water soluble 2,2′-azobis(2-amidinopropane) hydrochloride (AAPH) generates in vitro free radicals through spontaneous thermal decomposition. […] Overall, chalcones a, b, and c present anti-lipid peroxidation activity. […] The inhibiting activities for the rest b chalcones ranged from 15–44%. The intermediate ethers are moderate inhibitors. […] This might be correlated with the presence of the double C=C–COCH3 group. […] Both have a long ether chain in their structure.
In an aqueous solution spectrophotometrically at 234 nm the production of conjugated diene hydro peroxide by oxidation of sodium linoleate was monitored and recorded according to our previous published experimental conditions, using 10 µL of the 16 mM sodium linoleate solution added to the UV cuvette containing 930 μL of 0.05 M phosphate buffer, pH 7.4 pre-thermostated at 37 °C, under air by the addition of 50 μL of 40 mM AAPH solution, which was used as a free radical initiator. Ten microliters (10 μL) of the appropriate solutions of the tested compounds were added in the mixture, whereas same level of DMSO was used as a blank for the measurement of lipid oxidation. The rate of oxidation at 37 °C was monitored by recording the increase in absorption at 234 nm caused by conjugated diene hydro peroxides.

[3] = Reducing activity with the stable radical DPPH
Method: The chalcones were studied for the antioxidant activity (reducing activity RA%) by the use of the stable free radical 2,2-diphenyl-1-picrylhydrazyl radical (DPPH) at concentrations 0.05 mM after 20 and 60 min (Table 2). In this procedure, the dominant chemical reaction involved is the reduction of the DPPH radical by single electron transfer from the antioxidant. […] For the sake of comparison, we measured the RA% values for the intermediate double ethers d which were included in the Table 2.
To a solution of DPPH (final concentration 0.05 mM) in absolute ethanol an equal volume of the compounds solution in DMSO (stock solution 10 mM) dissolved in ethanol was added. Absolute ethanol was used as a control. The concentrations of the solutions of the compounds were 0.05 and 0.1 mM. The absorbance was recorded at 517 nm at room temperature after 20 and 60 min [29] (Table 2).

soybean lipoxygenase = molecular target: T1, soybean lipoxygenase (Glycine max, UniProt P08170); experiment: biochemical; assay type: biochemical; settings: soybean LOX; for IC50: read-out: LOX IC50
T1 sequence (P08170 1-839): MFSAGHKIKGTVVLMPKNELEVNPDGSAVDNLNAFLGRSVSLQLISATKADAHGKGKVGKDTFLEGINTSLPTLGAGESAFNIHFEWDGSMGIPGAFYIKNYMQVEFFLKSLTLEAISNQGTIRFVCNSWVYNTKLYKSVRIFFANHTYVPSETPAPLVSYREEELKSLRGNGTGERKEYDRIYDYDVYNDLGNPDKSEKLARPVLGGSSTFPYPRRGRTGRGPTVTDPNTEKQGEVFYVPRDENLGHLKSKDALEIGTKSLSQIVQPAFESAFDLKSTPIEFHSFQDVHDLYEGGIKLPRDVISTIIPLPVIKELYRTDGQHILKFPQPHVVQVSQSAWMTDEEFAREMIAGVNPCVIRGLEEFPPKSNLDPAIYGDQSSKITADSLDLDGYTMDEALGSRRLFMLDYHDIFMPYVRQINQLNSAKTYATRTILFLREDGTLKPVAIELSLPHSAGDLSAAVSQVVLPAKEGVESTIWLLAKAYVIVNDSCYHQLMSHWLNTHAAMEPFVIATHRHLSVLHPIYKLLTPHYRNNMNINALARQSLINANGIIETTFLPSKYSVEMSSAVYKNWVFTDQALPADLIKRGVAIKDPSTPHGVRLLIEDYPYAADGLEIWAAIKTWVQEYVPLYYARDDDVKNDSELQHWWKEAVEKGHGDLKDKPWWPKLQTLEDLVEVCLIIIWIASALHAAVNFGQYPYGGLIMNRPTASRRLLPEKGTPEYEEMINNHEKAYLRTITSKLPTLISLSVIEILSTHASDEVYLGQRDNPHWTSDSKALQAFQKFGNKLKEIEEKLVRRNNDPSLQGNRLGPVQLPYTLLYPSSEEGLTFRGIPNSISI
Description: In our experiments we used soybean lipoxygenase. Designing agents to modulate activities of the variety of so closely homologous enzymes, such as different LOXs, require an intimate knowledge of their 3D structures, as well as information about metabolism of the potential xenobiotics. […] Due to lack of sufficiently-purified human enzymes most of the research has been done on soybean LOX [52, 53]. Although this enzyme is not identical to the mammalian one, it seems that there is a sufficient qualitative correlation between values for enzyme inhibition with the two enzymes.
In vitro study was evaluated as reported previously. The tested compounds as stock solutions were dissolved in DMSO. Ten microliters (10 μL) were incubated at room temperature with sodium linoleate ([…]) and 0.2 mL of enzyme solution (1/9 × 10^−4 w/v in saline) in buffer pH 9 (tris) at room temperature (final volume 1 mL). […] Several concentrations were used for the determination of IC50 values.

[4] = Lipophilicity as RM values by RP-TLC; assay type: physicochemical; parameters: key: RM = log[(1/Rf) − 1]; settings: methanol/water 70/30, SD < 10%
Description: It is well-documented and discussed in the literature that lipophilicity is a very significant physicochemical property which may critically affect distribution, bioavailability, metabolic activity and elimination, all the useful characteristics for the kinetics of biologically active compounds. Thus, we attempted to determine experimentally the lipophilicity of the synthesized compounds from the RPTLC method as RM values. The method is considered to be a reliable, fast and convenient method for expressing lipophilicity. Moreover, many calculated methods were used in order to predict the logP value.
Reversed phase TLC (RP-TLC) was performed on silica gel plates impregnated with 5% (v/v) liquid paraffin in light petroleum ether. The mobile phase was a methanol/water mixture (70/30, v/v). The plates were developed in closed chromatography tanks saturated with the mobile phase at 24 °C. Spots were detected under UV light. Five individual measurements of Rf values were recorded and used for the determination of RM using the equation RM = log [(1/Rf) − 1]. (Table 3).

[5] = ABTS•+ decolorization assay
Method: The decolorization assay is used to evaluate the antioxidant activity. The ABTS^•+ cationic radical is derived from the direct oxidation of ABTS by potassium persulfate. No involvement of an intermediary radical is observed. The addition of electron-donating antioxidants reduce ABTS^•+.
Stock solutions of the tested compounds in DMSO (10 mM) were diluted. […] aliquots of each sample were added into the ABTS·^+ solution and the absorbance was recorded at room temperature. Trolox was used as a standard.

SMILES | 10 μM Average (% pi) ± σ [1] [%] | 20 μM Average (% pi) ± σ [1] [%] | 50 μM Average (% pi) ± σ [1] [%] | 100 μM Average (% pi) ± σ [1] [%] | AAPH% @ 100 μM (anti-lipid peroxidation) [2] [%] | RA% 100 μM 20 min [3] | RA% 100 μM 60 min [3] | % LOX Inhb. @ 100 μM (soybean lipoxygenase) [%] | RM [4] | ABTS•+ Inhb. % @ 100 μM [5] | IC50 (soybean lipoxygenase) [µM] | 1 μM Average (% pi) ± σ ([1]; 1 μM) [%]
O=C(/C=C/C=C/c1ccc([N+](=O)[O-])cc1)c1ccc(O)cc1 [a11, (2E,4E)-1-(4-hydroxyphenyl)-5-(4-nitrophenyl) penta-2,4-dien-1-one] | 6.26 ± 3 | 18.81 ± 2.57 | 67.84 ± 6.45 | 67.84 ± 6.45 | 55 | 7% | 3% | 36 | −1.09 | 14% |  | 
CC(/C=C/C(=O)c1ccccc1O)=C\c1ccccc1 [b8, (2E,4E)-1-(2-hydroxyphenyl)-4-methyl-5-phenylpenta-2,4-dien-1-one] |  |  |  |  | 25 | 17% | 3% | 25 | −0.79 | 12% |  | 
CN(C)c1ccc(/C=C/C=C/C(=O)c2ccc(OCCCCOc3ccc(C(=O)/C=C/C=C/c4ccc(N(C)C)cc4)cc3)cc2)cc1 [eiii, (2E,2′E,4E,4′E)-1,1′-((butane-1,4-diylbis(oxy))bis(4,1-phenylene))bis(5-(4-(dimethylamino)phenyl)penta-2,4-dien-1-one)] |  |  |  |  | 47 | No | no | 27 | −0.07 | No |  | 
O=C(/C=C/c1ccc(OCc2ccc(Br)cc2)cc1)c1ccccc1O [b1, (E)-3-(4-((4-bromobenzyl)oxy)phenyl)-1-(2-hydroxyphenyl) prop-2-en-1-one] |  |  |  |  | 89 | 46% | 0% | 89 | −0.91 | 40% | 56 | 
O=C(/C=C/c1ccccc1)c1ccccc1O [b13, (E)-1-(2-hydroxyphenyl)-3-phenylprop-2-en-1-one] |  |  |  |  | 15 | 10% | 0% | 14 | 0.43 | No |  | 
O=C(/C=C/c1ccco1)c1ccc(OCCCOc2ccc(C(=O)/C=C/c3ccco3)cc2)cc1 [c10, (2E,2′E)-1,1′-((propane-1,3-diylbis(oxy))bis(4,1-phenylene))bis(3-(furan-2-yl)prop-2-en-1-one)] | 13.48 ± 10.36 | 25.93 ± 9.73 | 32.11 ± 9.38 | 32.11 ± 9.38 | 77 | No | no | 57 | 0.7 | 11% | 85 | 18.10 ± 11.82
O=C(/C=C/C=C/c1ccccc1)c1ccccc1O [b7, (2E,4E)-1-(2-hydroxyphenyl)-5-phenylpenta-2,4-dien-1-one] |  |  |  |  | 29 | 13% | 0% | 29 | −0.85 | 5% |  | 
O=C(/C=C/c1ccccc1)c1ccc(OCCCOc2ccc(C(=O)/C=C/c3ccccc3)cc2)cc1 [c13, (2E,2′E)-1,1′-((propane-1,3-diylbis(oxy))bis(4,1-phenylene))bis(3-phenylprop-2-en-1-one)] |  |  |  |  | 71 | No | no | 76 | 0.34 | No | 65 | 
O=C(/C=C/C(Br)=C\c1ccccc1)c1ccccc1O [b9, (2E,4E)-4-bromo-1-(2-hydroxyphenyl)-5-phenylpenta-2,4-dien-1-one] |  |  |  |  | 17 | 20% | 8% | 16 | −0.37 | No |  | 
O=C(/C=C/C=C/c1ccc([N+](=O)[O-])cc1)c1ccccc1O [b11, (2E,4E)-1-(2-hydroxyphenyl)-5-(4-nitrophenyl) penta-2,4-dien-1-one] |  |  |  |  | 31 | 4% | 2% | 31 | −0.91 | No |  | 
